Measurements from patent US20250369954A1, “PLATFORM AND METHOD TO CO[…] FUN[…] CARD[…] OTHER CELLS ON BOTH SIDES OF A POROUS MEMBRANE” (Government of the United States of America, as represented …, priority 2024, published 2025).

System: hiPSC-CM cells
Assay: Impedance measurement of cardiomyocyte beating on the microfluidic device
Type: cell-based, human
Conditions: 1 μM verapamil, after 10 minutes of treatment, hiPSC-CM on porous membrane
Experimental: In one embodiment, human induced pluripotent stem cell-derived cardiomyocytes (hiPSC-CM) were cultured directly on the PET membrane of the microfluidic device.
Cells in this example were trapped in the region of interest within the device using dielectrophoretic cell capture, directing cells from the microfluidic channel to the electrode. In this example, the entire electrode was covered with cells in increasing density from around 1 to 3 minutes. The following parameters for dielectrophoresis were used in this example: 4-6 Vpp, 12 MHz, […] μl min-1.
In one embodiment, hiPSC-CM cells are captured on one side of the porous membrane as in Example 1. The cardiomyocytes are treated with 1 μM verapamil, a Ca^2+ channel blocker used for treating arrhythmia.

Compound: COc1ccc(CCN(C)CCCC(C#N)(c2ccc(OC)c(OC)c2)C(C)C)cc1OC (stereo not shown) [verapamil]
- effect on cardiomyocyte beating (change in impedance): cessation of cardiomyocyte beating
